# Test results: the kinase profiling compilation of Christmann-Franck et al. (2016)
# What was measured:
# Assay in all cases: KINOMEscan competition binding
# Settings in all cases: compound 10.0 µM
# [1] = target: NEK4 (human) (UniProt P51957)
# [2] = target: CSK (human) (UniProt P41240)
# [3] = target: RPS6KB1 (human) (UniProt P23443)
# [4] = target: DCLK3 (human) (UniProt Q9C098)
# [5] = target: NEK9 (human) (UniProt Q8TD19)
# [6] = target: PRKCQ (human) (UniProt Q04759)
# [7] = target: CHEK2 (human) (UniProt O96017)
# [8] = target: CASK (human) (UniProt O14936)
# Sequence of CASK (human) (O14936 whole entry, looked up): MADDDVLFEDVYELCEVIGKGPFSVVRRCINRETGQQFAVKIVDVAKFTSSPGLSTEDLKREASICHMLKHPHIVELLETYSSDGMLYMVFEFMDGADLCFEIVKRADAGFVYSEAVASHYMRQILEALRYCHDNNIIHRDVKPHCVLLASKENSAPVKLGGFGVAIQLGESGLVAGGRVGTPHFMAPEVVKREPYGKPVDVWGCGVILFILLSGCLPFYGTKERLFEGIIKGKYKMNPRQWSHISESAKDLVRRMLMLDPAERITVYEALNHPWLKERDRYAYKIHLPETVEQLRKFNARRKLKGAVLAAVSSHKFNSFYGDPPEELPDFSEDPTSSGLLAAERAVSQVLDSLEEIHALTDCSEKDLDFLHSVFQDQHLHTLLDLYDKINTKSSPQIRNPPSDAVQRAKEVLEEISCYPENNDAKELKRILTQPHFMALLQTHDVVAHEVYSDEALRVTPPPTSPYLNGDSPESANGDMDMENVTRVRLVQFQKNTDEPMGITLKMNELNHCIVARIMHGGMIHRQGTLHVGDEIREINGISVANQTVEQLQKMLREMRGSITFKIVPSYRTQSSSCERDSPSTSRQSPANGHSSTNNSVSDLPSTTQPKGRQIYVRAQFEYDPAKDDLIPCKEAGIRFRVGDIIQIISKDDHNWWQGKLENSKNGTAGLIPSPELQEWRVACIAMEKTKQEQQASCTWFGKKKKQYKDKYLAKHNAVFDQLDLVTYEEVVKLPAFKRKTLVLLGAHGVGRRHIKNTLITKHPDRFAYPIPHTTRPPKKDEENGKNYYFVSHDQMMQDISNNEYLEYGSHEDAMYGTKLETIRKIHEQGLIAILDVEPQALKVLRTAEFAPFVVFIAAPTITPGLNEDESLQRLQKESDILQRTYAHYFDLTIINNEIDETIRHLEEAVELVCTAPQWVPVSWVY
# [9] = target: AKT3 (human) (UniProt Q9Y243)
# [10] = target: CAMK1D (human) (UniProt Q8IU85)
# Sequence of CAMK1D (human) (Q8IU85 whole entry, looked up): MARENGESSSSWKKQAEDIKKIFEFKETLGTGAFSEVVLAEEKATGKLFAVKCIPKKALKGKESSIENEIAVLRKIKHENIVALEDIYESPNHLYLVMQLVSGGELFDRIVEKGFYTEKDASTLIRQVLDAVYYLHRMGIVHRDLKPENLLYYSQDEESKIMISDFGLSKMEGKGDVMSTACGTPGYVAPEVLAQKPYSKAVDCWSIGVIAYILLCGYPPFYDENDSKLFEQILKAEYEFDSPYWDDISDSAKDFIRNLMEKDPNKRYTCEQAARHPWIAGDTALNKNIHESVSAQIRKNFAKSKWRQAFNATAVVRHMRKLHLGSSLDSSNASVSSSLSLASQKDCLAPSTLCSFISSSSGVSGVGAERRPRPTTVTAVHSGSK
# [11] = target: ROS1 (human) (UniProt P08922)
# [12] = target: MYLK (human) (UniProt Q15746)
# [13] = target: HIPK2 (human) (UniProt Q9H2X6)
# [14] = target: ACVRL1 (human) (UniProt P37023)
# [15] = target: STK39 (human) (UniProt Q9UEW8)
# [16] = target: BRSK2 (human) (UniProt Q8IWQ3)
# [17] = target: AURKC (human) (UniProt Q9UQB9)
# Sequence of AURKC (human) (Q9UQB9 whole entry, looked up): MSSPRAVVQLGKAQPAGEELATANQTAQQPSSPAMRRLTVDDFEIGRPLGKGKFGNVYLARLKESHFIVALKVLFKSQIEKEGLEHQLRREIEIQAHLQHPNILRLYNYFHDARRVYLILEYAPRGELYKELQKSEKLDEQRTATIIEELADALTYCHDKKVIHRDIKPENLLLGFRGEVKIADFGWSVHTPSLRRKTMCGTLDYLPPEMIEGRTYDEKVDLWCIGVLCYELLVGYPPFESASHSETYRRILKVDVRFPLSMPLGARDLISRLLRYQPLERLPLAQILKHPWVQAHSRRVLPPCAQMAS
# [18] = target: MAP3K12 (human) (UniProt Q12852)
# Sequence of MAP3K12 (human) (Q12852 whole entry, looked up): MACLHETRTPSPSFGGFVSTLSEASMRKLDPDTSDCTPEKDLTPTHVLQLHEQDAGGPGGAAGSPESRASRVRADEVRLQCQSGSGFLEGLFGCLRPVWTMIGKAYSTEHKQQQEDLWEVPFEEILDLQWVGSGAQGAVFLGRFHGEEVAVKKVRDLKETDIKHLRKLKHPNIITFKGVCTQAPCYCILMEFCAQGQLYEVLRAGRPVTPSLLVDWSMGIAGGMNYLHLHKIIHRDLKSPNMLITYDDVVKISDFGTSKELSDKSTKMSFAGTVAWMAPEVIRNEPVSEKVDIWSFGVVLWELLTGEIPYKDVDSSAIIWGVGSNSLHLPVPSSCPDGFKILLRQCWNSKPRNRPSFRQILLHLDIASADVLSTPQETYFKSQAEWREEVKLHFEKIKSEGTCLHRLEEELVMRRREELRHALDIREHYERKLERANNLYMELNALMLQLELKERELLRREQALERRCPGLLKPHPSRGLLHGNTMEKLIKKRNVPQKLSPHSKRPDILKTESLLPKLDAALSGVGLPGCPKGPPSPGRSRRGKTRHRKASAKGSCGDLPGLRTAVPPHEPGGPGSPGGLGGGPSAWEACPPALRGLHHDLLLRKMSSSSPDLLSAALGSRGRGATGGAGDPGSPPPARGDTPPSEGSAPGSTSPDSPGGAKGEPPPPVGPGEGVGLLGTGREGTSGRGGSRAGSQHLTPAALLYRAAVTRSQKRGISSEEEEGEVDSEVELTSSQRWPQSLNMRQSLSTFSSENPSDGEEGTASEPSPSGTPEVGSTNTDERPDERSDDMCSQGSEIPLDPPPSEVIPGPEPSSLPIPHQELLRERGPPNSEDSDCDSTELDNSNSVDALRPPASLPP
# [19] = target: LIMK1 (human) (UniProt P53667)
# [20] = target: TNIK (human) (UniProt Q9UKE5)
# [21] = target: PRKAA1 (human) (UniProt Q13131)
# [22] = target: BMPR2 (human) (UniProt Q13873)
# [23] = target: AURKA (human) (UniProt O14965)
# Sequence of AURKA (human) (O14965 whole entry, looked up): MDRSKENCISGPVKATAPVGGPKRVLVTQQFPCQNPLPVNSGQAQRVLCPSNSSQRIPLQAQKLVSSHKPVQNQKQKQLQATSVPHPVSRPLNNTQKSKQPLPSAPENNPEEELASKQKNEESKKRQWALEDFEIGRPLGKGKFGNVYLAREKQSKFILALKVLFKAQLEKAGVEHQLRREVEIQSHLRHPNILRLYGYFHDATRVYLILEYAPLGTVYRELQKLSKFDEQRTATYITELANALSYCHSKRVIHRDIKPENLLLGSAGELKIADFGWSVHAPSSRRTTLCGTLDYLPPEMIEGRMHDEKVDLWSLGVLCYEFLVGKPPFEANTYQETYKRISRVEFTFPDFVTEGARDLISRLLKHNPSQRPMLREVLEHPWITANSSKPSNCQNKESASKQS
# [24] = target: EIF2AK1 (human) (UniProt Q9BQI3)
# [25] = target: CDC42BPB (human) (UniProt Q9Y5S2)
# [26] = target: MAP4K5 (human) (UniProt Q9Y4K4)
# [27] = target: NEK11 (human) (UniProt Q8NG66)
# [28] = target: MAP4K2 (human) (UniProt Q12851)
# [29] = target: EPHA4 (human) (UniProt P54764)
# Sequence of EPHA4 (human) (P54764 whole entry, looked up): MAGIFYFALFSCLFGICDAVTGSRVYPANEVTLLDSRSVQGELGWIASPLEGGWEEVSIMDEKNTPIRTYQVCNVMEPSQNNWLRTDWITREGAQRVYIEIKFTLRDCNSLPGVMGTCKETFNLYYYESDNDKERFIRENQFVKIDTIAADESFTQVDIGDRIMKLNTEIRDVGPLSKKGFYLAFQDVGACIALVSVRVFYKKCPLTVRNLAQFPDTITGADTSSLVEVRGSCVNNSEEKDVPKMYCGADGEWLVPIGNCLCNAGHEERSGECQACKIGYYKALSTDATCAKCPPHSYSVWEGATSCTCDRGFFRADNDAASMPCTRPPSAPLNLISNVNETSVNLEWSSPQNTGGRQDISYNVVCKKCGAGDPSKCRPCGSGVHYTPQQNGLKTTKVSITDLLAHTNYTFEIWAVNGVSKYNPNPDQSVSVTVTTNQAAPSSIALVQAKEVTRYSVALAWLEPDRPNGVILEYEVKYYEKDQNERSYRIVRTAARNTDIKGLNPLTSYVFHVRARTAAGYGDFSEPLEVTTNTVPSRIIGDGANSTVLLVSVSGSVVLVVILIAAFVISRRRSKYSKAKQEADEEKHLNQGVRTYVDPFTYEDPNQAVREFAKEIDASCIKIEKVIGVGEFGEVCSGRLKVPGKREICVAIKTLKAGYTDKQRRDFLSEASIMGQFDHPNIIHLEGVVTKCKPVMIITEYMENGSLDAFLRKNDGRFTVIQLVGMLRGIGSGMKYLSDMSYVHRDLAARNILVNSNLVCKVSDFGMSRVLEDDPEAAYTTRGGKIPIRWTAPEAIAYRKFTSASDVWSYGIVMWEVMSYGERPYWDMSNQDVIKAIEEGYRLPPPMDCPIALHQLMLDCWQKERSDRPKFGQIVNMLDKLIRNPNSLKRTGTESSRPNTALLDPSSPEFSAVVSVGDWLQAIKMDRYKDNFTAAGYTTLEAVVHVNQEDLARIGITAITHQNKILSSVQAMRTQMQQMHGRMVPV
# [30] = target: INSRR (human) (UniProt P14616)
# [31] = target: FGFR4 (human) (UniProt P22455)
# [32] = target: DAPK2 (human) (UniProt Q9UIK4)
# [33] = target: SRC (human) (UniProt P12931)
# [34] = target: STK32B (human) (UniProt Q9NY57)
# Sequence of STK32B (human) (Q9NY57 whole entry, looked up): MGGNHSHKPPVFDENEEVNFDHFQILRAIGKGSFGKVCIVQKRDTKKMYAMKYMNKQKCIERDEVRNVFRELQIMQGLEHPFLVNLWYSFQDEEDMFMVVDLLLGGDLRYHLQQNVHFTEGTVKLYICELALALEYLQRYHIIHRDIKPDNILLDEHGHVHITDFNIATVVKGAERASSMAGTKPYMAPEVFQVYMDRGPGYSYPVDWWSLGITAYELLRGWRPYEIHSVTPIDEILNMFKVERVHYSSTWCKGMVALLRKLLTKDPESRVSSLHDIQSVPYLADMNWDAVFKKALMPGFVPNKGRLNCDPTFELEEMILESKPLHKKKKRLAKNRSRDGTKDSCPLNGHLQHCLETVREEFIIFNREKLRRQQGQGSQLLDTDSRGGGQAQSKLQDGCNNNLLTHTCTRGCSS
# [35] = target: PIM1 (human) (UniProt P11309)
# [36] = target: MAP3K6 (human) (UniProt O95382)
# [37] = target: FER (human) (UniProt P16591)
# [38] = target: SRPK1 (human) (UniProt Q96SB4)
# [39] = target: CAMK2D (human) (UniProt Q13557)
# [40] = target: HIPK3 (human) (UniProt Q9H422)
# Sequence of PRKCQ (human) (Q04759 whole entry, looked up): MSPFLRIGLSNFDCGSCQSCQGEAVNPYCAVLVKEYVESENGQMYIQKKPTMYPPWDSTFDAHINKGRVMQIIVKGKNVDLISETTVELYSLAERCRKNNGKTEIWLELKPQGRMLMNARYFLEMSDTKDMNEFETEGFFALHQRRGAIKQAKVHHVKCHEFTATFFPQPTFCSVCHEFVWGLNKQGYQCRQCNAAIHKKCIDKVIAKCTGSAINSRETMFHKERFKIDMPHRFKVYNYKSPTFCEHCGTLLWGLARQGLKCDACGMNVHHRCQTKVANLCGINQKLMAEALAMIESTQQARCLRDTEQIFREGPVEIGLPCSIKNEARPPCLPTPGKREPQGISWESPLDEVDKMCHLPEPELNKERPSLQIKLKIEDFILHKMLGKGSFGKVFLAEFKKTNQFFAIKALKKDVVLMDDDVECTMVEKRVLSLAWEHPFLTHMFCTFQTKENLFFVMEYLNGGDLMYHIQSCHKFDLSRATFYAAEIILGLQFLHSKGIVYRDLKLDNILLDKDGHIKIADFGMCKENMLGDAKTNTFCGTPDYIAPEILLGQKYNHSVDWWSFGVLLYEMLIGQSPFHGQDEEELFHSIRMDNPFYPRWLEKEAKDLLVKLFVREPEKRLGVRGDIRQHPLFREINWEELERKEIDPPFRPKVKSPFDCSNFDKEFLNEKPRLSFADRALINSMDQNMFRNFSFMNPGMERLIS
Compound,"kinase still bound, per cent of control [1]","kinase still bound, per cent of control [2]","kinase still bound, per cent of control [3]","kinase still bound, per cent of control [4]","kinase still bound, per cent of control [5]","kinase still bound, per cent of control [6]","kinase still bound, per cent of control [7]","kinase still bound, per cent of control [8]","kinase still bound, per cent of control [9]","kinase still bound, per cent of control [10]","kinase still bound, per cent of control [11]","kinase still bound, per cent of control [12]","kinase still bound, per cent of control [13]","kinase still bound, per cent of control [14]","kinase still bound, per cent of control [15]","kinase still bound, per cent of control [16]","kinase still bound, per cent of control [17]","kinase still bound, per cent of control [18]","kinase still bound, per cent of control [19]","kinase still bound, per cent of control [20]",other results
COc1ccc(N(C(=O)Oc2c(C)cccc2C)c2ccnc(Nc3ccc(N4CCN(C)CC4)cc3)n2)c(OC)c1,74%,2.5%,72%,100%,100%,21%,78%,90%,100%,100%,0.8%,100%,100%,2.7%,100%,81%,9.9%,73%,0%,37%,"kinase still bound, per cent of control [21]: 23%; kinase still bound, per cent of control [22]: 0.2%; kinase still bound, per cent of control [23]: 6.8%; kinase still bound, per cent of control [24]: 100%; kinase still bound, per cent of control [25]: 2.9%; kinase still bound, per cent of control [26]: 0.7%; kinase still bound, per cent of control [27]: 100%; kinase still bound, per cent of control [28]: 1.6%; kinase still bound, per cent of control [29]: 0%; kinase still bound, per cent of control [30]: 100%; kinase still bound, per cent of control [31]: 7.4%; kinase still bound, per cent of control [32]: 100%; kinase still bound, per cent of control [33]: 0.05%; kinase still bound, per cent of control [34]: 1.1%; kinase still bound, per cent of control [35]: 100%; kinase still bound, per cent of control [36]: 93%; kinase still bound, per cent of control [37]: 0.85%; kinase still bound, per cent of control [38]: 23%; kinase still bound, per cent of control [39]: 100%; kinase still bound, per cent of control [40]: 91%"
CCN1CCN(C(=O)Cc2ccc(Nc3ncc(F)c(Nc4ccc(C(=O)Nc5ccccc5Cl)cc4)n3)cc2)CC1,63%,73%,39%,80%,18%,74%,70%,82%,100%,5.6%,34%,57%,5%,100%,100%,82%,1.2%,71%,9.8%,45%,"kinase still bound, per cent of control [21]: 32%; kinase still bound, per cent of control [22]: 25%; kinase still bound, per cent of control [23]: 0.5%; kinase still bound, per cent of control [24]: 66%; kinase still bound, per cent of control [25]: 100%; kinase still bound, per cent of control [26]: 64%; kinase still bound, per cent of control [27]: 100%; kinase still bound, per cent of control [28]: 51%; kinase still bound, per cent of control [29]: 83%; kinase still bound, per cent of control [30]: 63%; kinase still bound, per cent of control [31]: 71%; kinase still bound, per cent of control [32]: 15%; kinase still bound, per cent of control [33]: 18%; kinase still bound, per cent of control [34]: 100%; kinase still bound, per cent of control [35]: 60%; kinase still bound, per cent of control [36]: 86%; kinase still bound, per cent of control [37]: 100%; kinase still bound, per cent of control [38]: 1.9%; kinase still bound, per cent of control [39]: 71%; kinase still bound, per cent of control [40]: 12%"
